Experimental data from patent US20230279025A1, “KRAS G12D INHIBITORS” (Mirati Therapeutics, Inc., priority 2020, published 2023).

What was measured:
[1] = target: T1, KRas G12D (Homo sapiens (Human), UniProt P01116, G12D); test: KRas G12D Surface Plasmon Resonance (SPR) Binding Assay; details: Biacore T200, immobilized biotinylated KRAS protein, 1:1 binding model
Target sequence in this assay (P01116-2 other isoform, or with tags, fused parts or gaps G12D): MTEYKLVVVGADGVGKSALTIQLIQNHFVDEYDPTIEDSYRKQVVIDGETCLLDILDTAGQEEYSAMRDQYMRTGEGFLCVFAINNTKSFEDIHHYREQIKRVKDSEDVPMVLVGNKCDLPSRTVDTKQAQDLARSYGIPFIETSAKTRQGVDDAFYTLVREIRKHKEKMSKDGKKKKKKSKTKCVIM

[2] = target: T1, KRas G12D; test: KRas G12D Binding Assay (TR-FRET displacement of Cy5 labelled tracer); details: GDP-loaded KRAS G12D (amino acids 1:169), 60 minute incubation at 22° C.
Experimental: After a 60 minute incubation at 22° C., the reaction was measured using a PerkinElmer EnVision multimode plate reader via TR-FRET dual wavelength detection, and the percent of control (POC) calculated using a ratiometric emission factor. […] The POC values were fit to a 4-parameter logistic curve and the IC50 value was determined as the concentration where the curve crosses 50 POC.
ND stands for “not determined.”
Target sequence in this assay (P01116 other isoform, or with tags, fused parts or gaps G12D): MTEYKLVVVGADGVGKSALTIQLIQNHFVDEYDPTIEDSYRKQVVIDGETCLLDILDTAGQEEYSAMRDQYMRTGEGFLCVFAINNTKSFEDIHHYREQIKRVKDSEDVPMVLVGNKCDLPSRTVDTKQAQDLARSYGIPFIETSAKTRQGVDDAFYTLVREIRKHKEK

Cn1cncc1COc1nc(N2C[C@H]3CC[C@@H](C2)N3)c2cnc(-c3cc(O)cc4ccccc34)c(F)c2n1 [Example 95, 4-(4-((1R,5S)-3,8-diazabicyclo[3.2.1]octan-3-yl)-8-fluoro-2-((1-methyl-1H-imidazol-5-yl)methoxy)pyrido[4,3-d]pyrimidin-7-yl)naphthalen-2-ol]
Kd [1]: 1130 nM | IC50 [2]: 561 nM

Oc1cc(-c2ncc3c(N4C[C@H]5CC[C@@H](C4)N5)nc(OCCc4ccccc4)nc3c2F)c2ccccc2c1 [Example 96, 4-(4-((1R,5S)-3,8-diazabicyclo[3.2.1]octan-3-yl)-8-fluoro-2-phenethoxypyrido[4,3-d]pyrimidin-7-yl)naphthalen-2-ol]
Kd [1]: 710 nM | IC50 [2]: 2220 nM

Fc1c(-c2cccc3cccc(Cl)c23)ncc2c(N3C[C@H]4CC[C@@H](C3)N4)nc(OC[C@@H]3CCCN3Cc3ccccc3)nc12 [Example 97, 2-(((S)-1-benzylpyrrolidin-2-yl)methoxy)-4-((1R,5S)-3,8-diazabicyclo[3.2.1]octan-3-yl)-7-(8-chloronaphthalen-1-yl)-8-fluoropyrido[4,3-d]pyrimidine]
Kd [1]: 5920 nM | IC50 [2]: 934 nM

Oc1cc(-c2ncc3c(N4C[C@H]5CC[C@@H](C4)N5)nc(OCc4cccnc4)nc3c2F)c2ccccc2c1 [Example 99, 4-(4-((1R,5S)-3,8-diazabicyclo[3.2.1]octan-3-yl)-8-fluoro-2-(pyridin-3-ylmethoxy)pyrido[4,3-d]pyrimidin-7-yl)naphthalen-2-ol]
Kd [1]: 897 nM | IC50 [2]: 624 nM

Cc1cccc2cccc(-c3ncc4c(N5C[C@H]6CC[C@@H](C5)N6)nc(OCCc5nccn5C)nc4c3F)c12 [Example 100, 4-((1R,5S)-3,8-diazabicyclo[3.2.1]octan-3-yl)-8-fluoro-2-(2-(1-methyl-1H-imidazol-2-yl)ethoxy)-7-(8-methylnaphthalen-1-yl)pyrido[4,3-d]pyrimidine]
Kd [1]: 1090 nM | IC50 [2]: 1950 nM

Cc1cccc2cccc(-c3ncc4c(N5C[C@H]6CC[C@@H](C5)N6)nc(OCCc5cccnc5)nc4c3F)c12 [Example 101, 4-((1R,5S)-3,8-diazabicyclo[3.2.1]octan-3-yl)-8-fluoro-7-(8-methylnaphthalen-1-yl)-2-(2-(pyridin-3-yl)ethoxy)pyrido[4,3-d]pyrimidine]
Kd [1]: 12000 nM | IC50 [2]: 8080 nM

Oc1cc(-c2ncc3c(N4C[C@H]5CC[C@@H](C4)N5)nc(OCCc4ccc(F)cn4)nc3c2F)c2ccccc2c1 [Example 102, 4-(4-((1R,5S)-3,8-diazabicyclo[3.2.1]octan-3-yl)-8-fluoro-2-(2-(5-fluoropyridin-2-yl)ethoxy)pyrido[4,3-d]pyrimidin-7-yl)naphthalen-2-ol]
Kd [1]: 259 nM | IC50 [2]: 95.8 nM

Cn1ccnc1COc1nc(N2C[C@H]3CC[C@@H](C2)N3)c2cnc(-c3cc(O)cc4ccccc34)c(F)c2n1 [Example 104, 4-(4-((1R,5S)-3,8-diazabicyclo[3.2.1]octan-3-yl)-8-fluoro-2-((1-methyl-1H-imidazol-2-yl)methoxy)pyrido[4,3-d]pyrimidin-7-yl)naphthalen-2-ol]
Kd [1]: 362 nM | IC50 [2]: 1680 nM

COc1nc(N2C[C@H]3CC[C@@H](C2)N3)c2cnc(-c3cc(O)cc4ccccc34)c(F)c2n1 [Example 105, 4-(4-((I R,5S)-3,8-diazabicyclo[3.2.1]octan-3-yl)-8-fluoro-2-methoxypyrido[4,3-d]pyrimidin-7-yl)naphthalen-2-ol]
Kd [1]: 2260 nM | IC50 [2]: 867 nM

Oc1cc(-c2ncc3c(N4C[C@H]5CC[C@@H](C4)N5)nc(OCCc4cccnc4)nc3c2F)c2ccccc2c1 [Example 106, 4-(4-((1R,5S)-3,8-diazabicyclo[3.2.1]octan-3-yl)-8-fluoro-2-(2-(pyridin-3-yl)ethoxy)pyrido[4,3-d]pyrimidin-7-yl)naphthalen-2-ol]
Kd [1]: 53.5 nM | IC50 [2]: 156 nM

CN(C)CCOc1nc(N2C[C@H]3CC[C@@H](C2)N3)c2cnc(-c3cccc4cccc(Cl)c34)c(F)c2n1 [Example 107, 2-((4-((I R,5S)-3,8-diazabicyclo[3.2.1]octan-3-yl)-7-(8-chloronaphthalen-1-yl)-8-fluoropyrido[4,3-d]pyrimidin-2-yl)oxy)-N,N-dimethylethan-1-amine]
Kd [1]: 1440 nM | IC50 [2]: 2120 nM

Fc1c(-c2cccc3ccccc23)ncc2c(N3C[C@H]4CC[C@@H](C3)N4)nc(OC[C@@H]3CCCN3Cc3ccccc3)nc12 [Example 108, 2-(((S)-1-benzylpyrrolidin-2-yl)methoxy)-4-((1R,5S)-3,8-diazabicyclo[3.2.1]octan-3-yl)-8-fluoro-7-(naphthalen-1-yl)pyrido[4,3-d]pyrimidine]
Kd [1]: 63500 nM | IC50 [2]: 4840 nM

Oc1cc(-c2ncc3c(N4C[C@H]5CC[C@@H](C4)N5)nc(OCC45CCCN4CCC5)nc3c2F)c2ccccc2c1 [Example 109, 4-(4-((1R,5S)-3,8-diazabicyclo[3.2.1]octan-3-yl)-8-fluoro-2-((tetrahydro-1H-pyrrolizin-7a(5H)-yl)methoxy)pyrido[4,3-d]pyrimidin-7-yl)naphthalen-2-ol bis(2,2,2-trifluoroacetate)]
Kd [1]: > 500000 nM | IC50 [2]: 0.5 nM

Cn1cncc1CCOc1nc(N2C[C@H]3CC[C@@H](C2)N3)c2cnc(-c3cc(O)cc4ccccc34)c(F)c2n1 [Example 110, 4-(4-((1R,5S)-3,8-diazabicyclo[3.2.1]octan-3-yl)-8-fluoro-2-(2-(1-methyl-1H-imidazol-5-yl)ethoxy)pyrido[4,3-d]pyrimidin-7-yl)naphthalen-2-ol]
Kd [1]: 42.3 nM | IC50 [2]: 57.5 nM

Cn1ccnc1CCNc1nc(N2C[C@H]3CC[C@@H](C2)N3)c2cnc(-c3cc(O)cc4ccccc34)c(F)c2n1 [Example 111, 4-(4-((1R,5S)-3,8-diazabicyclo[3.2.1]octan-3-yl)-8-fluoro-2-((2-(1-methyl-1H-imidazol-2-yl)ethyl)amino)pyrido[4,3-d]pyrimidin-7-yl)naphthalen-2-ol]
Kd [1]: 276 nM | IC50 [2]: 281 nM

Cn1ccnc1CCOc1nc(N2C[C@H]3CC[C@@H](C2)N3)c2cnc(-c3cccc4ccc(F)cc34)c(F)c2n1 [Example 112, 4-((1R,5S)-3,8-diazabicyclo[3.2.1]octan-3-yl)-8-fluoro-7-(7-fluoronaphthalen-1-yl)-2-(2-(1-methyl-1H-imidazol-2-yl)ethoxy)pyrido[4,3-d]pyrimidine]
Kd [1]: 983 nM | IC50 [2]: 718 nM

Fc1c(-c2cccc3cccc(Cl)c23)ncc2c(N3C[C@H]4CC[C@@H](C3)N4)nc(OCCc3cccnc3)nc12 [Example 113, 4-((1R,5S)-3,8-diazabicyclo[3.2.1]octan-3-yl)-7-(8-chloronaphthalen-1-yl)-8-fluoro-2-(2-(pyridin-3-yl)ethoxy)pyrido[4,3-d]pyrimidine]
Kd [1]: 2500 nM | IC50 [2]: 2870 nM

Cn1ccnc1CCOc1nc(N2C[C@H]3CC[C@@H](C2)N3)c2cnc(-c3cccc4cccc(Cl)c34)c(F)c2n1 [Example 114, 4-((I R,5S)-3,8-diazabicyclo[3.2.1]octan-3-yl)-7-(8-chloronaphthalen-1-yl)-8-fluoro-2-(2-(1-methyl-1H-imidazol-2-yl)ethoxy)pyrido[4,3-d]pyrimidine]
Kd [1]: 384 nM | IC50 [2]: 482 nM

CN1C[C@H](F)C[C@H]1COc1nc(N2C[C@H]3CC[C@@H](C2)N3)c2cnc(-c3cccc4cccc(Cl)c34)c(F)c2n1 [Example 115, 4-((1R,5S)-3,8-diazabicyclo[3.2.1]octan-3-yl)-7-(8-chloronaphthalen-1-yl)-8-fluoro-2-(((2S,4R)-4-fluoro-1-methylpyrrolidin-2-yl)methoxy)pyrido[4,3-d]pyrimidine]
Kd [1]: 333000 nM | IC50 [2]: 174 nM

Cc1cccc2cccc(-c3cc4nc(OC[C@@H]5CCCN5C)nc(N5C[C@H]6CC[C@@H](C5)N6)c4cn3)c12 [Example 116, 4-((1R,5S)-3,8-diazabicyclo[3.2.1]octan-3-yl)-7-(8-methylnaphthalen-1-yl)-2-(((S)-1-methylpyrrolidin-2-yl)methoxy)pyrido[4,3-d]pyrimidine]
Kd [1]: 3630 nM | IC50 [2]: 1440 nM

CN1CCC[C@H]1COc1nc(N2C[C@H]3CC[C@@H](C2)N3)c2cnc(-c3cccc4cccc(CCC#N)c34)c(F)c2n1 [Example 117, 3-(8-(4-((1R,5S)-3,8-diazabicyclo[3.2.1]octan-3-yl)-8-fluoro-2-(((S)-1-methylpyrrolidin-2-yl)methoxy)pyrido[4,3-d]pyrimidin-7-yl)naphthalen-1-yl)propanenitrile bis(2,2,2-trifluoroacetate)]
Kd [1]: 1000 nM | IC50 [2]: 732 nM

Oc1cc(-c2ncc3c(N4C[C@H]5CC[C@@H](C4)N5)nc(N4CCCC4)nc3c2F)c2ccccc2c1 [Example 118, 4-(4-((1R,5S)-3,8-diazabicyclo[3.2.1]octan-3-yl)-8-fluoro-2-(pyrrolidin-1-yl)pyrido[4,3-d]pyrimidin-7-yl)naphthalen-2-ol 2,2,2-trifluoroacetate]
Kd [1]: 1060 nM | IC50 [2]: 477 nM

Oc1cc(-c2ncc3c(N4C[C@H]5CC[C@@H](C4)N5)nc(N4CCC4)nc3c2F)c2ccccc2c1 [Example 119, 4-(2-(azetidin-1-yl)-4-((1R,5S)-3,8-diazabicyclo[3.2.1]octan-3-yl)-8-fluoropyrido[4,3-d]pyrimidin-7-yl)naphthalen-2-ol 2,2,2-trifluoroacetate]
Kd [1]: 511 nM | IC50 [2]: 684 nM

CN(C)C1CN(c2nc(N3C[C@H]4CC[C@@H](C3)N4)c3cnc(-c4cc(O)cc5ccccc45)c(F)c3n2)C1 [Example 120, 4-(4-((1R,5S)-3,8-diazabicyclo[3.2.1]octan-3-yl)-2-(3-(dimethylamino)azetidin-1-yl)-8-fluoropyrido[4,3-d]pyrimidin-7-yl)naphthalen-2-ol bis(2,2,2-trifluoroacetate)]
Kd [1]: 42.1 nM | IC50 [2]: 28.8 nM
